{"source": "patent US20070107077A1", "about": "“Microprojectile bombardment transformation of brassica” (Pioneer Hi-Bred International, Inc., priority 2005, published 2007)", "set-up_in_all_cases": "species or system Brassica", "key": {"[1]": {"tested_on": "non-transgenic microspores", "assay": "Selection kill curve using Geneticin (G418): embryo growth and survival in liquid medium", "text": "The objective was to determine the concentration of G418 that kills non-transgenic microspores.\n(§1) Prior to this experiment, selection was done on solid medium, not in liquid medium. Using liquid selection for Brassica transgenic cells is novel. Selection in liquid medium is advantageous for at least the following reasons: (a) it allows selection at an early stage, thereby eliminating the need for subsequent transfers of explants, (b) it allows for a cleaner selection because the explants are generally smaller when they are in liquid medium and the liquid allows all the surfaces of the explant to be exposed to the selection agent, (c) it may reduce the frequency of chimeras, and (d) a lower amount of the selection agent is needed therefore reducing the toxicity to the researcher and the environment. The effect of various concentrations of kanamycin on embryo growth in liquid medium was tested. […] Accordingly, it was difficult to discriminate transgenic tissue or embryos from non-transgenic."}, "[2]": {"tested_on": "pre-incubated microspores bombarded with PHP22021 and PHP22024", "assay": "Glyphosate resistant embryo selection in liquid medium NLN-6.5S after bombardment", "procedure": "Pre-incubated microspores were used as bombarded materials. Any Brassica line that is capable of regenerating by microspore culture can be used. The microspores were cultured for 1-3 days in NLN-17S at 31.5° C, and then in NLN-10S for 4-5 days at 25° C. The constructs used in the bombardments were PHP18644, PHP21965, PHP22024, PHP22021, and PHP23560 (see Table 9). The constructs can be the full plasmid or the expression cassette only. For example, PHP22024 can be either the expression cassette or the full plasmid. The pre-incubated microspores were filtrated with sieves of pore size of […] to 36 μm. The collected microspores were used for bombardment. The microspores were loaded on a sieve 15 μm or 20 μm on two layers of filter-paper and dried for less than one minute. The microspores and sieves were transferred to osmotic medium that contained B5 components, 1 g/l MES and 0.8-1.6% gelrite, 15-21% sucrose (pH 6.0). The microspores were treated for at least one hour on the osmotic medium before bombardment. The pre-incubated microspores were bombarded with 12.5 ng to 5 μg DNA per preparation, 15-100 μg Au particles per shot, 2.5 M CaCl2, and 650-900 psi rupture disk. […] Resistant embryos were recorded after two to three weeks of culture. […]"}, "[3]": {"tested_on": "non-bombarded embryos", "assay": "Effect of kanamycin on embryo growth in liquid medium, non-bombarded embryos", "text": "as §1"}}, "note": "Several values for one entry are separate records, joined by “and”; a condition that tells them apart may be missing. Equal values may be shown once. Where a name gives a salt, the structure may show the parent alone.", "data": [{"smiles": "CN[C@@H]1[C@@H](O)[C@@H](O[C@@H]2[C@@H](O)[C@H](O[C@H]3O[C@H]([C@@H](C)O)[C@@H](O)[C@H](O)[C@H]3N)[C@@H](N)C[C@H]2N)OC[C@]1(C)O", "note": "[G418, G418 disulfate salt]", "values": [{"measurement": "# Green embryos or with green island", "setting": "[1]; G418 1.25 mg/l, disulfate salt", "result": "30 (paler) and 28 (paler)"}, {"measurement": "# Green embryos or with green island", "setting": "[1]; G418 2.5 mg/l, disulfate salt", "result": "14 (light green, smaller size) and 11 (light green, smaller size)"}, {"measurement": "# Green embryos or with green island", "setting": "[1]; G418 5 mg/l", "result": 0}, {"measurement": "# Green embryos or with green island", "setting": "[1]; G418 10 mg/l", "result": 0}, {"measurement": "concentration sufficient to differentiate transformed cells from untransformed cells (cleaner selection)", "setting": "[1]; NLN with 6.5% sucrose medium", "result": "5 to 10", "unit": "mg/L"}]}, {"smiles": "O=C(O)CNCP(=O)(O)O", "note": "[Glyphosate, glyphosate]", "values": [{"measurement": "# embryos (abnormal)/plate", "setting": "[2]; glyphosate 0.2 mM, plasmid PHP22021", "result": 0}, {"measurement": "selection efficiency, false positives", "setting": "[2]; selection at 0.2 mM compared with 0.1 mM glyphosate", "result": "fewer false positive results"}]}, {"smiles": "NC[C@H]1O[C@H](O[C@H]2[C@H](O)[C@@H](O[C@H]3O[C@H](CO)[C@@H](O)[C@H](N)[C@H]3O)[C@H](N)C[C@@H]2N)[C@H](O)[C@@H](O)[C@@H]1O", "note": "[kanamycin]", "values": [{"measurement": "concentration sufficient to bleach non-bombarded embryos and inhibit non-bombarded embryo growth", "setting": "[3]", "result": 10, "unit": "mg/L"}]}]}
